US11512090B2, “Muscarinic acetylcholine M1 receptor antagonists” (PIPELINE THERAPEUTICS, INC., priority 2018, dated 2022)
Like-named read-outs stand apart in the source and are kept apart here.

Tests used:
Format in all cases: cell-based
human M1 receptor = target: T1, human M1 receptor (Homo sapiens, UniProt P11229); assay: In vitro functional assay of muscarinic acetylcholine receptor activity (aequorin calcium flux, antagonist mode vs EC80 acetylcholine), M1
T1 sequence (P11229 1-460): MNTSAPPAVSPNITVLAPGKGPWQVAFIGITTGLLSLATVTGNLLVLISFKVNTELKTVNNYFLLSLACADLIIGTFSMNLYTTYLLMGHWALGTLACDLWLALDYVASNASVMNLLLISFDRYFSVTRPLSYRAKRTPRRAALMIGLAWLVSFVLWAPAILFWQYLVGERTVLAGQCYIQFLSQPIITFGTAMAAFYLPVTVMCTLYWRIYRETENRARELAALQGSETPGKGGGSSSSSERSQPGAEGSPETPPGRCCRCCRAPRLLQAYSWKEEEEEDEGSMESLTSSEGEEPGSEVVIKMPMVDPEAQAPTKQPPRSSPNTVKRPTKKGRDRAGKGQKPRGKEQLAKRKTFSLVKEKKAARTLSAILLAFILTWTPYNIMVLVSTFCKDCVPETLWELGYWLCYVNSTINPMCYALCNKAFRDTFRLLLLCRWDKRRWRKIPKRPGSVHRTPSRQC
In short: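 CHO-K1 cells stably co-expressing human M1 and aequorin were loaded with 5 uM coelenterazine h for 4 h at room temperature in the dark. IC50 came from the drop in luminescence.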

M2 = target: T2, M2 (Homo sapiens, UniProt P08172); assay: In vitro functional assay of muscarinic acetylcholine receptor activity, M2
T2 sequence (P08172 1-466): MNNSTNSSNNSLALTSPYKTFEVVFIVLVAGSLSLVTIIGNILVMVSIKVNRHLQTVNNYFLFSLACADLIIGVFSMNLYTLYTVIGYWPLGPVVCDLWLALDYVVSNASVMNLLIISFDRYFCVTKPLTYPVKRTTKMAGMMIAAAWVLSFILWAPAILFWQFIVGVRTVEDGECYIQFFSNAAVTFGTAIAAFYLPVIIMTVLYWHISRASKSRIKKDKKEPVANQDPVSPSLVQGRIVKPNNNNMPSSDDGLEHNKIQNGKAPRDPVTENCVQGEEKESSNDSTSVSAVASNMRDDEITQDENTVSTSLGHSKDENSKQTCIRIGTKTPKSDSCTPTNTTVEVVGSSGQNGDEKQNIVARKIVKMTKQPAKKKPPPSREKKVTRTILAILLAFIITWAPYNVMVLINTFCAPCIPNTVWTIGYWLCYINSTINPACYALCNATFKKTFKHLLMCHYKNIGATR

M3 = M3 (Homo sapiens, UniProt P20309); assay: In vitro functional assay of muscarinic acetylcholine receptor activity, M3
M3, sequence (P20309 whole entry): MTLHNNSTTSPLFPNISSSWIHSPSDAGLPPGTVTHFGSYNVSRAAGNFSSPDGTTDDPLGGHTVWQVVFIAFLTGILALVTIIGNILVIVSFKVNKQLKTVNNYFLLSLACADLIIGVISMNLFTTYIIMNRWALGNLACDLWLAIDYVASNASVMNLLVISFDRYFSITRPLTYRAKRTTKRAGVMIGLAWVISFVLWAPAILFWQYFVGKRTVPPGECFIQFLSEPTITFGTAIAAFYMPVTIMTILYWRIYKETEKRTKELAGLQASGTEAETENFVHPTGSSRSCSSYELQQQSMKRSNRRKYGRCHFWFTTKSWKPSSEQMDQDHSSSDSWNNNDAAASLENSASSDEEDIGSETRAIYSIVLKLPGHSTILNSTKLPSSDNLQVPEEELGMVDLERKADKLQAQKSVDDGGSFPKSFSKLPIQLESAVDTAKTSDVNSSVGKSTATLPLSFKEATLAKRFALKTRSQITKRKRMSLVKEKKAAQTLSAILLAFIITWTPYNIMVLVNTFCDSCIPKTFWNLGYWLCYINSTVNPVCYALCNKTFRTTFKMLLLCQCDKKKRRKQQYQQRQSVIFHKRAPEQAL

[1] = CHO-K1 cells stably expressing human M1 receptor with Aequorin, decrease in EC80 acetylcholine response, read-out: M1 IC50
[2] = antagonist IC50 at M2, read-out: M2 IC50
[3] = antagonist IC50 at M3, read-out: M3 IC50

| SMILES | IC50 (human M1 receptor; [1]) | IC50 (M2; [2]) | IC50 (M3; [3]) | IC50 (human M1 receptor) | IC50 (M3) | IC50 (M2) |
| --- | --- | --- | --- | --- | --- | --- |
| O=C(COCc1cccc2ncsc12)N1C[C@H]2CC[C@@H](C1)N2c1ccncc1F [Example 86, 2-(benzo[d]thiazol-7-ylmethoxy)-1-((1R,5S)-8-(3-fluoropyridin-4-yl)-3,8-diazabicyclo[3.2.1]octan-3-yl)ethan-1-one] | 1000 to 10000 nM | 1000 to 10000 nM | > 10000 nM |  |  |  |
| Cc1nc2cccc(S(=O)(=O)CCC(=O)N3CCN(c4ccc(C(F)(F)F)cn4)CC3)c2o1 [Example 109, 3-((2-methylbenzo[d]oxazol-7-yl)sulfonyl)-1-(4-(5-(trifluoromethyl)pyridin-2-yl)piperazin-1-yl)propan-1-one] | 1000 to 10000 nM | > 10000 nM | > 10000 nM |  |  |  |
| Cc1cc(F)cnc1N1CCN(C(=O)CCCc2cccc3ncccc23)CC1 [Example 55, 1-(4-(5-fluoro-3-methylpyridin-2-yl)piperazin-1-yl)-4-(quinolin-5-yl)butan-1-one] | < 100 nM | 100 to 1000 nM | 1000 to 10000 nM |  |  |  |
| O=C(CNCCc1cccn2nccc12)N1C[C@H]2CC[C@@H](C1)N2c1ccncc1F [Example 118, 1-((1R,5S)-8-(3-fluoropyridin-4-yl)-3,8-diazabicyclo[3.2.1]octan-3-yl)-2-((2-(pyrazolo[1,5-a]pyridin-4-yl)ethyl)amino)ethan-1-one] | 1000 to 10000 nM | > 10000 nM | > 10000 nM |  |  |  |
| N#Cc1ccc(N2CC3CCC(C2)N3C(=O)CCNCc2cccc3ncsc23)nc1 [Example 160, 6-[8-(3-{[(1,3-benzothiazol-7-yl)methyl]amino}propanoyl)-3,8-diazabicyclo[3.2.1]octan-3-yl]pyridine-3-carbonitrile] |  | 1000 to 10000 nM | > 10000 nM | 100 to 1000 nM |  |  |
| O=C(CCCc1cccc2ncccc12)N1CCN(c2ccncc2)CC1 [Example 4, 1-(4-(pyridin-4-yl)piperazin-1-yl)-4-(quinolin-5-yl)butan-1-one] | < 100 nM | 1000 to 10000 nM | 1000 to 10000 nM |  |  |  |
| Cc1cc(C#N)ncc1N1CCN(C(=O)CCNCc2c(F)ccc3nccn23)[C@@H](C)C1 [Example 151, 5-[(3S)-4-{3-[({6-fluoroimidazo[1,2-a]pyridin-5-yl}methyl)amino]propanoyl}-3-methylpiperazin-1-yl]-4-methylpyridine-2-carbonitrile] | 1000 to 10000 nM | 1000 to 10000 nM | > 10000 nM |  |  |  |
| N#Cc1cc(N2C3CCC2CN(C(=O)CCS(=O)(=O)c2cccc4ncsc24)C3)ccc1F [Example 122, 5-{3-[3-(1,3-benzothiazole-7-sulfonyl)propanoyl]-3,8-diazabicyclo[3.2.1]octan-8-yl}-2-fluorobenzonitrile] |  | > 10000 nM |  | < 100 nM | < 100 nM |  |
| Cc1cc(Cl)cnc1N1CCN(C(=O)CCNCc2cccc3nccn23)[C@H](C)C1 [Example 123, 1-[(2R)-4-(5-chloro-3-methylpyridin-2-yl)-2-methylpiperazin-1-yl]-3-[({imidazo[1,2-a]pyridin-5-yl}methyl)amino]propan-1-one] | 1000 to 10000 nM | > 10000 nM | 1000 to 10000 nM |  |  |  |
| N#Cc1cc(N2C3CCC2CN(C(=O)CCNCc2c(F)ccc4nccn24)C3)ccc1F [Example 131, 2-fluoro-5-(3-{3-[({6-fluoroimidazo[1,2-a]pyridin-5-yl}methyl)amino]propanoyl}-3,8-diazabicyclo[3.2.1]octan-8-yl)benzonitrile] |  | > 10000 nM | > 10000 nM | 100 to 1000 nM |  |  |
| Cc1nc2cccc(S(=O)(=O)CCC(=O)N3C[C@H]4CC[C@@H](C3)N4c3ccncc3F)c2o1 [Example 103, 1-((1R,5S)-8-(3-fluoropyridin-4-yl)-3,8-diazabicyclo[3.2.1]octan-3-yl)-3-((2-methylbenzo[d]oxazol-7-yl)sulfonyl)propan-1-one] |  |  | 1000 to 10000 nM | < 100 nM |  | 100 to 1000 nM |
| COc1cnccc1N1CCN(C(=O)CCCc2cccc3ncccc23)[C@@H](C)C1 [Example 92, (S)-1-(4-(3-methoxypyridin-4-yl)-2-methylpiperazin-1-yl)-4-(quinolin-5-yl)butan-1-one] | < 100 nM | 100 to 1000 nM | 1000 to 10000 nM |  |  |  |
| O=C(CCNCc1cccc2ncsc12)N1C[C@H]2CC[C@@H](C1)N2c1ccncc1F [Example 8, 3-((benzo[d]thiazol-7-ylmethyl)amino)-1-((1R,5S)-8-(3-fluoropyridin-4-yl)-3,8-diazabicyclo[3.2.1]octan-3-yl)propan-1-one] |  | 1000 to 10000 nM | 1000 to 10000 nM | < 100 nM |  |  |
| O=C(C1CN(Cc2cccc3ncsc23)C1)N1C[C@H]2CC[C@@H](C1)N2c1ccncc1F [Example 7] | 1000 to 10000 nM | > 10000 nM | > 10000 nM |  |  |  |
| O=C(CCS(=O)(=O)c1cccc2ncsc12)N1CCN(c2ccnc(C(F)(F)F)c2)CC1 [Example 99, 3-(benzo[d]thiazol-7-ylsulfonyl)-1-(4-(2-(trifluoromethyl)pyridin-4-yl)piperazin-1-yl)propan-1-one] | 1000 to 10000 nM | 1000 to 10000 nM | > 10000 nM |  |  |  |
| C[C@H]1CN(c2cc[nH]c(=O)c2)CCN1C(=O)CCS(=O)(=O)c1cccc2ncsc12 [Example 117, (S)-4-(4-(3-(benzo[d]thiazol-7-ylsulfonyl)propanoyl)-3-methylpiperazin-1-yl)pyridin-2(1H)-one] | 1000 to 10000 nM | > 10000 nM | > 10000 nM |  |  |  |
| N#Cc1ccc(N2C3CCC2CN(C(=O)CCS(=O)(=O)c2cccc4ncsc24)C3)nc1 [Example 24, 6-{3-[3-(1,3-benzothiazole-7-sulfonyl)propanoyl]-3,8-diazabicyclo[3.2.1]octan-8-yl}pyridine-3-carbonitrile] |  | 100 to 1000 nM | 100 to 1000 nM | < 100 nM |  |  |
| Cc1nc2cccc(CCCC(=O)N3CCN(c4ccncc4F)CC3)c2o1 [Example 73, 1-(4-(3-fluoropyridin-4-yl)piperazin-1-yl)-4-(2-methylbenzo[d]oxazol-7-yl)butan-1-one] | 100 to 1000 nM | 1000 to 10000 nM | > 10000 nM |  |  |  |
| N#Cc1ccc(N2C3CCC2CN(C(=O)CCOCc2cccc4ncc(C(F)(F)F)n24)C3)nc1 [Example 188, 6-[3-(3-{[3-(trifluoromethyl)imidazo[1,2-a]pyridin-5-yl)methoxy}propanoyl)-3,8-diazabicyclo[3.2.1]octan-8-yl)pyridine-3-carbonitrile] | 1000 to 10000 nM | 1000 to 10000 nM | > 10000 nM |  |  |  |
| Cc1cc(C(F)(F)F)ncc1N1CCN(C(=O)CCS(=O)(=O)c2cccc3ncsc23)[C@@H](C)C1 [Example 153, 3-(1,3-benzothiazole-7-sulfonyl)-1-[(2S)-2-methyl-4-[4-methyl-6-(trifluoromethyl)pyridin-3-yl]piperazin-1-yl]propan-1-one] | < 100 nM | 100 to 1000 nM | 100 to 1000 nM |  |  |  |
| N#Cc1cc(N2C3CCC2CN(C(=O)CCNCc2cccc4ncsc24)C3)ccn1 [Example 159, 4-[3-(3-{[(1,3-benzothiazol-7-yl)methyl]amino}propanoyl)-3,8-diazabicyclo[3.2.1]octan-8-yl]pyridine-2-carbonitrile] |  | 1000 to 10000 nM | > 10000 nM | < 100 nM |  |  |
| C[C@H]1CN(c2ccc(C#N)nc2)CCN1C(=O)CCS(=O)(=O)c1cccc2ncsc12 [Example 114, (S)-5-(4-(3-(benzo[d]thiazol-7-ylsulfonyl)propanoyl)-3-methylpiperazin-1-yl)picolinonitrile] | 100 to 1000 nM | 1000 to 10000 nM | 1000 to 10000 nM |  |  |  |
| O=C(CCNCc1c(F)ccc2nccn12)N1CC2CCC(C1)N2c1ccc(C(F)(F)F)cn1 [Example 152, 3-[({6-fluoroimidazo[1,2-a]pyridin-5-yl}methyl)amino]-1-{8-[5-(trifluoromethyl)pyridin-2-yl]-3,8-diazabicyclo[3.2.1]octan-3-yl}propan-1-one] |  | 1000 to 10000 nM | > 10000 nM | < 100 nM |  |  |
| O=C(CNCCc1cccc2ncsc12)N1CC2CCC(C1)N2c1ccncc1F [Example 15, 2-[[2-(1,3-benzothiazol-7-yl)ethyl]amino]-1-[8-(3-fluoropyridin-4-yl)-3,8-diazabicyclo[3.2.1]octan-3-yl]ethan-1-one] |  | 1000 to 10000 nM | > 10000 nM | 100 to 1000 nM |  |  |
| O=C(CCNCc1c(F)ccc2nccn12)N1CC2CCC(C1)N2c1ccncc1F [Example 139, 3-[({6-fluoroimidazo[1,2-a]pyridin-5-yl}methyl)amino]-1-[8-(3-fluoropyridin-4-yl)-3,8-diazabicyclo[3.2.1]octan-3-yl]propan-1-one] |  | > 10000 nM | > 10000 nM | 100 to 1000 nM |  |  |
